Test results published in patent US20250120980A1, “DIBENZ[…] AND USE IN […] PROTEIN AGONISTS THEREOF” (priority 2023, published 2025).
Values joined by “and” are separate entries in the source; they are usually repeats but may differ in a detail not shown here. Equal entries are not always repeated.

Legend:
Assay type in all cases: cell-based
IAV (influenza virus) = tested on: IAV (influenza virus)
[1] = tested on: VSV-GFP (vesicular stomatitis virus)
[2] = tested on: STING pathway (IFNb gene expression) in L929 mouse epithelial-like fibroblasts
[3] = tested on: PRV-GFP (porcine pseudorabies virus)

| Compound | M1 (M gene of influenza virus) Ct value (IAV (influenza virus)) | Infection Rate, VSV-GFP [1] | proportion of VSV-GF infected cells (in words) [1] | IFNb mRNA expression 2-^ΔΔCt value [2] | Infection Rate, PRV-GFP [3] | proportion of PRV-GFP infected cells (in words) [3] |
| --- | --- | --- | --- | --- | --- | --- |
| Cc1ccc2c(c1C)Nc1cc(F)ccc1CC2=O [Compound 13, 3-fluoro-6,7-dimethyl-5,11-dihydro-10H-dibenzo[b,f]aza-10-one] | 19.45 and 20.25 and 19.66 | 94.3% and 92.7% and 92.1% | significantly reduced | 2.97 and 2.37 and 2.48 and 3.34 | 7.06% and 8.55% and 7.42% | significantly reduced |
| Cc1ccc2c(c1C)Nc1ccccc1CC2=O [Compound 11, 6,7-dimethyl-5,11-dihydro-10H-dibenzo[b,f]aza-10-one] | 18.71 and 18.62 and 18.68 | 40% and 31.1% and 33.7% | significantly reduced | – | 13.1% and 14.2% and 13.5% | significantly reduced |
| COc1ccc2c(c1)CC(=O)c1ccc(C)c(C)c1N2 [Compound 19, 2-methoxy-6,7-dimethyl-5,11-dihydro-10H-dibenzo[b,f]aza-10-one] | 21.37 and 21.39 and 21.49 | 99% and 91.1% and 90.5% | significantly reduced | – | 51% and 55.7% and 50.2% | significantly reduced |
| O=C1Cc2ccccc2Nc2c(Cl)cccc21 [Compound 15, 6-chloro-5,11-dihydro-10H-dibenzo[b,f]aza-10-one] | – | – | – | 1.61 | – | – |
| COc1ccc2c(c1)Nc1c(ccc(C)c1C)C(=O)C2 [Compound 18, 3-methoxy-6,7-dimethyl-5,11-dihydro-10H-dibenzo[b,f]aza-10-one] | 19.52 and 19.47 and 19.51 | 13.9% and 12.5% and 12.9% | significantly reduced | 8.76 and 6.92 and 6.07 and 5.62 | 18.3% and 18.1% | significantly reduced |
| O=C1Cc2ccccc2Nc2ccccc21 [Compound 14, 5,11-dihydro-10H-dibenzo[b,f]aza-10-one] | 18.99 and 19.52 and 19.69 | 76.1% and 66.5% and 65.8% | significantly reduced | – | 17.1% and 19.5% and 19.8% | significantly reduced |
| COc1ccc2c(c1)C(=O)Cc1ccccc1N2 [Compound 17, 8-methoxy-5,11-dihydro-10H-dibenzo[b,f]aza-10-one] | – | – | – | 1.54 | – | – |
